In the test the target is T1, Estrogen receptor (Homo sapiens, UniProt P03372).
T1 sequence (P03372 whole entry): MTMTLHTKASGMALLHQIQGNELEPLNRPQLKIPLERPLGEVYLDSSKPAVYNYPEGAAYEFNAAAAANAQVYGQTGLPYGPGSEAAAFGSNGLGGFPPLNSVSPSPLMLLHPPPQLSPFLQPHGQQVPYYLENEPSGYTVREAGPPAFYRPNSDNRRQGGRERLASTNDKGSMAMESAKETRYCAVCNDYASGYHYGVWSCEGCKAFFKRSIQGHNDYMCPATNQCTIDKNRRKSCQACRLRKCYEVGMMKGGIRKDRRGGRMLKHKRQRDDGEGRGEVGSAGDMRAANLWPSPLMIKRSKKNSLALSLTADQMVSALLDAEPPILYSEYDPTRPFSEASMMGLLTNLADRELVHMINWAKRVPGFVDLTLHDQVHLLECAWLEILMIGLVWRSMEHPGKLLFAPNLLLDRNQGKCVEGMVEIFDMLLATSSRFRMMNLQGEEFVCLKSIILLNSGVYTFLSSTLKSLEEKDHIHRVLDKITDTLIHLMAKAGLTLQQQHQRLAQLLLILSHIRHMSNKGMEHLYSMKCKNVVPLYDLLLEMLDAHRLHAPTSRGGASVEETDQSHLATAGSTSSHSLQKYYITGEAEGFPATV
Description: Binding affinity for human Estrogen receptor alpha

Take `COc1cc(O)cc2cc(-c3ccc(O)c(F)c3)oc12`: the IC50 is 990 nM.

In turn, `COc1cc(O)c(Br)c2cc(-c3ccc(O)c(F)c3)oc12` returned an IC50 of 335 nM.

The term IC50 denotes the concentration needed to halve the response being measured.

The record behind these values is ChEMBL document CHEMBL1137038, “7-Substituted 2-phenyl-benzofurans as ER beta selective ligands” (Bioorg Med Chem Lett, 2004).
